Biological target: T1, ratTRPA1 (rTRPA1) (Rattus norvegicus, UniProt Q6RI86)
T1 construct: expressed in transfected cells
Experiment: TRPA1 calcium imaging in CHO cells (AITC activation)
Type: cell-based
Settings: CHO cells expressing TRPA1, Fluo-4, AITC 160 μM
Description: TRPA1 is known to be responsible for inflammatory and neuropathic pain appearance; therefore, it can be considered as a potential biological target for the analgesic action of the studied pyrazolones. Therefore, we studied the effect of pyrazolone 6b, showing the maximum analgesic effect in the hot plate test at 1 h on the activation of the TRPA1 ion channel by allyl isothiocyanate (AITC). The cell line CHO (Chinese hamster ovary cell) stably expressing the TRPA1 channel was used for measurement. Activation by a specific agonist was measured by fluorescence spectroscopy using Fluo-4 dye by changing the level of intracellular calcium.
Testing for receptors ratTRPA1 (rTRPA1) and ratTRPV1 (rTRPV1), stably expressed in CHO cells, was carried out using the calcium imaging method as described in [123, 124]. Fluorescence was performed using NOVOstar (BMG LABTECH, Ortenberg, Germany). The tested substances in 26% DMSO solution or 26% DMSO solution alone (negative control) (5 μL) were added to the cells loaded with the cytoplasmic calcium indicator Fluo-4AM using Fluo-4 Direct™ Calcium Assay Kit (Thermo Fisher Scientific Inc., Waltham, MA, USA) (60 μL) and incubated 5–10 min. Final DMSO concentration was 2%. Changes in cell fluorescence (λex = 485 nm, λem = 520 nm) were monitored at 25 °C before and after the addition of relevant agonist. […]

T1 sequence (Q6RI86 whole entry): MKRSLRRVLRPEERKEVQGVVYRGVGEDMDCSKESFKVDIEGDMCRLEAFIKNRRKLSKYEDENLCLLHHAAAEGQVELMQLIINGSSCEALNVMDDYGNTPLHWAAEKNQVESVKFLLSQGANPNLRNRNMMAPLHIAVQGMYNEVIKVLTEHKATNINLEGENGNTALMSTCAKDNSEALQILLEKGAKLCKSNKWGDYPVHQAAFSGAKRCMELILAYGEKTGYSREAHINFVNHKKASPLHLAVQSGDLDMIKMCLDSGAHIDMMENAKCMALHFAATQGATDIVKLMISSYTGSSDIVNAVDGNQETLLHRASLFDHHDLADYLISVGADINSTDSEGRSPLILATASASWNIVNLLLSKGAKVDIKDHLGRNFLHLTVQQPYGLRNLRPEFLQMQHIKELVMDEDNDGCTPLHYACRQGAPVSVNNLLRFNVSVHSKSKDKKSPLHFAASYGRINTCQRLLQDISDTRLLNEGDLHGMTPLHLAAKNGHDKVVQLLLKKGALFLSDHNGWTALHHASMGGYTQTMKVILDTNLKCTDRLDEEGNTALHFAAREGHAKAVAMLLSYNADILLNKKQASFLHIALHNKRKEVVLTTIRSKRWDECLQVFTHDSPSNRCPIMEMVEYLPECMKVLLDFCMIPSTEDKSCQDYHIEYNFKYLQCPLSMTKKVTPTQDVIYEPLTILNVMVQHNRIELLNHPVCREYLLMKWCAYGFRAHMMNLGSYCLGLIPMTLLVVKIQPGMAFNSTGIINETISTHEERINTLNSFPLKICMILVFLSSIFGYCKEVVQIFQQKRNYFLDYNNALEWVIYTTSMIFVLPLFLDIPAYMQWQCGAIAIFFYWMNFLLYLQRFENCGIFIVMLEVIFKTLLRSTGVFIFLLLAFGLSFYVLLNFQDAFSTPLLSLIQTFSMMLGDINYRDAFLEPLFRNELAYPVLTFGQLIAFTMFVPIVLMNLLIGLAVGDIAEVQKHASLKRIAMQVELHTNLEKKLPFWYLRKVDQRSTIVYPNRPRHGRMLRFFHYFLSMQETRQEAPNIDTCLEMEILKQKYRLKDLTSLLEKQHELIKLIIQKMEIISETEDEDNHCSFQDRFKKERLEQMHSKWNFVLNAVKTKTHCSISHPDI

Cc1ccc(N/N=C2\C(=O)N(c3ccccc3)N=C2C(F)(F)C(F)(F)F)cc1 [6b, (4Z)-4-[2-(4-Methylphenyl)hydrazinylidene]-5-(pentafluoroethyl)-2-phenyl-2,4-dihydro-3H-pyrazol-3-one]
effect on AITC-induced TRPA1 channel activation: no significant effect
